From BindingDB's records for doi:10.1021/jm061414r (The Scripps Research Institute, 2007)

Biological target: T1, Carboxylic ester hydrolase (Homo sapiens, UniProt Q8TDZ9)
T1 sequence (Q8TDZ9 whole entry): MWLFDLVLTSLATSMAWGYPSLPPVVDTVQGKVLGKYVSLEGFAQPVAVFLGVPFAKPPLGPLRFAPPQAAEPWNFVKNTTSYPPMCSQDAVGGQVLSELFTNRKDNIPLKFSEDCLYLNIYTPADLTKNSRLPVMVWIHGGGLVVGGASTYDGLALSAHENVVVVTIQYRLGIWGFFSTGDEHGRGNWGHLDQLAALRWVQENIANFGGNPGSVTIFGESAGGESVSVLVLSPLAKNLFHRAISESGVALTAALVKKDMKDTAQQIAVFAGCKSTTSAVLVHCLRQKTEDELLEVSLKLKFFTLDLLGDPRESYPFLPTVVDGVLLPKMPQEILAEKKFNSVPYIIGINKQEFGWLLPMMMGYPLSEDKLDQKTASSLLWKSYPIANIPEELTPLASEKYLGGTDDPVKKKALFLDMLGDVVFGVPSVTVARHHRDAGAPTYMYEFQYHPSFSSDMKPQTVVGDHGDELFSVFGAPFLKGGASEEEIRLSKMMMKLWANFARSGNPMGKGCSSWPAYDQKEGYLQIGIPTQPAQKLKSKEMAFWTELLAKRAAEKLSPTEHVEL
Assay: TGH Inhibition Assay
Protocol: Inhibition of TGH activity was assayed using COS-7 expressed TGH and the chromogenic substrate. IC50 values were determined from the inhibition observed at 7 different inhibitor concentrations (three trials each).

Row | IC50 [nM] | SMILES
1 | 8000 | O=C(CCc1ccc(OCc2ccccc2)cc1)c1ncc(-c2ccccn2)o1 [3-[4-(benzyloxy)phenyl]-1-[5-(pyridin-2-yl)-1,3-oxazol-2-yl]propan-1-one]
2 | 500 | O=C(CCCCCCc1cccc(Cl)c1Cl)c1ncc(-c2ccccn2)o1 [7-(2,3-dichlorophenyl)-1-[5-(pyridin-2-yl)-1,3-oxazol-2-yl]heptan-1-one]
3 | 2000 | O=C(CCc1ccc(COc2ccccc2)cc1)c1ncc(-c2ccccn2)o1
